Data published in patent US9427691B2, “Antimicrobial air filter” (PTI Technologies, Inc., priority 2014, dated 2016).

Key:
Format in all cases: cell-based
[1] = tested on: Staphylococcus aureus (ATCC #6538); test: quantitative test for bacterial growth on treated air filter media; settings: for # of Bacteria Recovered / % Reduction / Log Reduction (S): air filter media saturated with solution and dried, 18 hours at 37 C
Experimental: There are various anti-microbial agents that are available for application to the air filter media 16. […] To determine the effectiveness of an antimicrobial agent with regard to bacteria, samples of air filter media 16 were treated with various solutions of antimicrobial agents and subjected to a quantitative test. In the quantitative test for bacterial growth, an air filter media sample was saturated with a solution of an antimicrobial agent and allowed to dry. The air filter media sample was then placed in a sealed container and a 0.2 mL inoculum of Staphylococcus aureus (ATCC #6538) was placed, in microdroplets, on the surface of the air filter media sample. A solution having a 0.05% concentration of polysorbate 80 was added to the inoculum as a wetting agent. The air filter media sample was then incubated for 18 hours at a temperature of 37 C°. After incubation, 20 mL of […] broth was added to the container, and the container was shaken. The bacteria in the resulting liquid were then quantified using a series of dilution plates.

Aspergillus niger fungus = test: antifungal test AATCC Test Method 30-2013 on treated air filter media
Experimental: (§1) Air filter media samples treated with the aforementioned antimicrobial solutions were then tested for antifungal properties using the common American Association of Textile Chemists and Colorists (AATCC) Test Method 30-2013. […] A larger growth-free zone indicates higher antifungal properties, and a higher surface inhibition indicates higher antifungal properties. The test was performed for both Aspergillus niger and Trichoderma virens species of fungus.

[2] = tested on: Trichoderma virens fungus; test: as above
Experimental: as §1

Compound | effectiveness at inhibiting bacterial growth (in words) [1] | # of Bacteria Recovered [1] | % Reduction [1] [%] | Log Reduction (S) [1] | effectiveness at inhibiting fungal growth (in words) (Aspergillus niger fungus) | Growth-Free Zone in MM (Aspergillus niger fungus; treated filter media) [MM] | Surface Inhibition (Aspergillus niger fungus; treated filter media) | effectiveness at inhibiting fungal growth (in words) [2] | Growth-Free Zone in MM ([2]; treated filter media) [MM] | Surface Inhibition ([2]; treated filter media)
Cc1ccc(S(=O)(=O)C(I)I)cc1 [1% diiodomethyl-p-tolyl sulfone, diiodomethyl-p-tolyl sulfone] | most effective | <2.00 × 10^1 | >99.9 | >4.8 | did not inhibit any growth | 0 | 0 | limited in its effectiveness | 0 | 50
[Cl][Ag] [2% silver chloride, silver chloride] | – | 1.81 × 10^4 | 98.6 | 1.8 | – | – | – | – | – | –
